Assay results taken from the supplement of paper PMC10307832.

Assays:
Assay in all cases: relative viability (nuclei count vs DMSO), 5 days (fraction); higher = more cells survive
AZD6482 + Alpelisib = compound: Cc1cc([C@@H](C)Nc2ccccc2C(=O)O)c2nc(N3CCOCC3)cc(=O)n2c1 [AZD6482] + Cc1nc(NC(=O)N2CCC[C@H]2C(N)=O)sc1-c1ccnc(C(C)(C)C(F)(F)F)c1 [Alpelisib] (partner 2 µM)
How it was run: (§1)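 Lung cancer cell lines, seeded in 1536-well plates, were treated the following day by pin tool with a single drug or with five library-drug doses (not always all listed) in √10 steps on top of a fixed anchor-drug dose. Cells were fixed and nuclei stained in one step after 5 days, and nuclei were counted. Relative viability is the nuclei count for treated wells divided by that for vehicle wells, reported as medians of duplicate plates.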

[1] = compound: COc1cc2nc(N3CCCN(C)CC3)nc(NC3CCN(Cc4ccccc4)CC3)c2cc1OC + CS(=O)(=O)CCNCc1ccc(-c2ccc3ncnc(Nc4ccc(OCc5cccc(F)c5)c(Cl)c4)c3c2)o1 [Lapatinib] (partner 2 µM)
How it was run: as §1

[2] = compound: COc1cc2nc(N3CCCN(C)CC3)nc(NC3CCN(Cc4ccccc4)CC3)c2cc1OC + CS(=O)(=O)N1CCN(Cc2cc3nc(-c4cccc5[nH]ncc45)nc(N4CCOCC4)c3s2)CC1 [Pictilisib] (partner 1 µM)
How it was run: as §1

AZD6482 + Lapatinib = compound: Cc1cc([C@@H](C)Nc2ccccc2C(=O)O)c2nc(N3CCOCC3)cc(=O)n2c1 [AZD6482] + CS(=O)(=O)CCNCc1ccc(-c2ccc3ncnc(Nc4ccc(OCc5cccc(F)c5)c(Cl)c4)c3c2)o1 [Lapatinib] (partner 2 µM)
How it was run: as §1

Cell Line	relative viability (AZD6482 + Alpelisib; first compound 0.08 µM)	relative viability (AZD6482 + Alpelisib; first compound 0.8 µM)	relative viability (AZD6482 + Alpelisib; first compound 2.53 µM)	relative viability (AZD6482 + Alpelisib; first compound 8 µM)	relative viability ([1]; first compound 0.2 µM)	relative viability ([1]; first compound 0.6325 µM)	relative viability ([1]; first compound 2 µM)	relative viability ([1]; first compound 6.325 µM)	relative viability ([2]; first compound 0.2 µM)	relative viability ([2]; first compound 0.6325 µM)	relative viability ([2]; first compound 2 µM)	relative viability ([2]; first compound 6.325 µM)	relative viability (AZD6482 + Lapatinib; first compound 0.08 µM)	relative viability (AZD6482 + Lapatinib; first compound 0.253 µM)	relative viability (AZD6482 + Lapatinib; first compound 0.8 µM)	relative viability (AZD6482 + Lapatinib; first compound 2.53 µM)	relative viability (AZD6482 + Lapatinib; first compound 8 µM)	relative viability (AZD6482 + Alpelisib; first compound 0.253 µM)
LK-2	1.07	1.86	0.972	1.21	0.983	0.996	1.14	0.909	0.621	0.565	0.669	0.632	1.13	0.645	0.959	0.767	0.815	–
NCI-H1437	0.819	0.809	0.641	0.741	0.754	0.888	0.966	0.698	0.436	0.496	0.49	0.323	0.727	0.747	0.769	0.592	0.421	0.842
COR-L23	0.461	0.854	0.494	0.76	0.848	0.849	1.1	0.92	0.843	0.701	0.931	0.772	0.938	0.948	1.15	0.734	0.893	0.737
ABC-1	0.741	1.05	0.702	0.826	1.09	1.14	1.25	1.05	0.618	0.926	0.699	0.611	1.07	1.16	1.07	1.03	0.932	0.819
NCI-H838	0.8	0.881	0.679	0.771	0.948	1.11	1.13	0.918	0.477	0.598	0.479	0.424	0.776	0.783	0.894	0.482	0.6	0.98
A549	0.585	0.43	0.275	0.361	1.06	0.897	1.04	0.827	0.551	0.569	0.622	0.473	0.944	0.891	0.913	0.485	0.571	0.552
A-427	1.08	1.04	0.952	1.06	1.07	0.977	1.05	1	0.755	0.728	0.679	0.675	0.97	0.869	1.08	0.777	1.1	0.967
NCI-H1792	0.516	0.67	0.393	0.359	0.953	0.893	0.94	1.02	0.299	0.233	0.247	0.276	0.814	0.815	0.879	0.628	0.598	0.518
LCLC-97TM1	0.274	0.238	0.187	0.204	0.875	–	1.17	0.836	0.186	–	0.149	0.139	1.04	1.01	1.28	0.271	0.462	0.19
